The numbers were not newly measured in publication PMC9199361 (Inorganic chemistry, 2020), which cites them from elsewhere.

For data set [1] the following is noted: 5 M HCl, 90 °C.
The conditions of data set [2]: copper complex of the chelator.
For data set [3] the following is noted: for log KML: copper(II) complex of the chelator.

Consider `O=C(O)CN1CCCN(CC(=O)O)CCN(CC(=O)O)CCCN(CC(=O)O)CC1` [TETA], for which the “acid stability (conditions)” value in data set [1] was <4.5 min (5 M HCl, 90 °C). Besides, in data set [2], the “E1/2 (V)” value is on record as −0.980 V and the “reversibility of the redox event at E1/2” value was “irrev”. Further, the “log KML” value in data set [3] is listed as 21.9.
As to `O=C(O)CN1CCCN2CCN(CCCN(CC(=O)O)CC2)CC1` [CB-TE2A], the “acid stability (conditions)” value in data set [1] was 254 h (5 M HCl, 90 °C). Besides, in data set [2], the “E1/2 (V)” value was −0.88 V and the “reversibility of the redox event at E1/2” value is “quasi-rev”. Also, the “log KML” value in data set [3] is on record as 27.1.
`O=C(O)CN1CCN(CC(=O)O)CCN(CC(=O)O)CC1` [NOTA]: the “acid stability (conditions)” value in data set [1] was <3 min (5 M HCl, 90 °C). Moreover, the “reversibility of the redox event at E1/2” value in data set [2] is recorded as “irrev”. In addition, in data set [3] (copper(II) complex), the “thermodynamic stability constant (log KML)” value was 21.9.
